Data published in patent US12465630B2, “Small peptide compositions and uses thereof” (University of Pittsburgh—Of the Commonwealth System of …, priority 2018, dated 2025).

Key:
[1] = system: cardiac fibroblasts; assay: Motility (scratch) assay, cardiac fibroblasts; assay type: cell-based, mouse
Procedure: (§1) Primary cardiac fibroblasts and cardiomyocytes were isolated from both wild-type and CXCR3−/− neonatal mouse pups. After washing in PBS, hearts were stirred for 5 minutes in 0.5% trypsin at 37° C. to dissociate cells into solution. The suspended cells were then transferred to DMEM containing 20% fetal bovine serum (FBS) on ice to inactivate trypsin activity, and dissociation was repeated twice more with fresh trypsin solution. Cells were then washed and plated into 6-well plates at 1.25×10^6 cells/well, suspended in cardiac cell media (DMEM containing 7.5% dialyzed FBS and 1% antibiotic/antimitotic solution). After three hours, adhered fibroblasts were separated from the unattached cardiomyocytes through resuspension of the cells, and cardiomyocytes were plated separately at a density of 5×10^5 cells/ml.
(§2) To determine the effect of IP-10p on TGFβ1-induced cell migration, motility assays were performed on cardiac fibroblasts, cardiomyocytes, and co-cultures (2:1 ratio of cardiomyocytes to fibroblasts). Cells were plated at 2.5×10^5 cells/well in a 12-well uncoated plate in depleted media (DMEM containing 0.5% FBS) 24 hours before beginning the experiment. A pipette tip was used to create a scratch in the monolayer and the plate was washed twice with PBS to remove scraped cells. Cells were then treated with TGFβ1 (R&D Systems, Minneapolis, MN) alone (10 ng/mL) to stimulate fibrosis, CXCL10 alone (10 μM), IP-10p alone (10 μM), TGFβ1+CXCL10, TGFβ1+IP-10p, or left untreated. Images were taken immediately after scratching and 24 hours later, and Adobe Photoshop was used to quantify wound motility as distance between wound edges relative to the initial scratch width.

[2] = system: co-cultures of cardiomyocytes and cardiac fibroblasts; assay: Fibrotic extracellular matrix (ECM) secretion, co-cultures; assay type: cell-based, mouse; conditions: 48 h
Procedure: as §1
Cardiac fibrosis is marked by overproduction of ECM proteins following injury. To observe the effect of IP-10p on secretion of these molecules, co-cultures of cardiomyocytes and cardiac fibroblasts were used to account for […] signaling taking place between the two dominant cell types in the heart. Fibroblasts and myocytes were plated at a 2:1 ratio using the same culture conditions and treatment groups described above for fibroblast activation. Following a 48-hour incubation with their respective treatments, cells were fixed, permeabilized and stained. Antibodies for collagen α1 type 1 (1:250, Santa Cruz Biotechnology SC8784, Dallas, TX), fibronectin (1:250, Abcam ab2413), and tenascin C (1:200, Abcam ab6346), followed by their appropriate secondary antibodies (Abcam ab150132, ab150077, and 150153, respectively), were used to determine fibrotic ECM secretion from the co-cultures. Expression of these molecules is expressed at CTCF and was quantified using MetaMorph® (Molecular Devices, Sunnyvale, CA).

[3] = system: cardiomyocytes; assay: Motility (scratch) assay, cardiomyocytes; assay type: cell-based, mouse; conditions: TGFβ1 10 ng/mL + agent 10 μM, 24 h, FIG. 1A
Procedure: as §1, §2

[4] = system: co-cultures of cardiomyocytes and cardiac fibroblasts; assay: Motility (scratch) assay, co-cultures; assay type: cell-based, mouse; conditions: co-culture 2:1 cardiomyocytes to fibroblasts; FIG. 1C; listed as IP-10 Peptide
Procedure: as §1
To determine the effect of IP-10p on TGFβ1-induced cell migration, motility assays were performed on cardiac fibroblasts, cardiomyocytes, and co-cultures (2:1 ratio of cardiomyocytes to fibroblasts). Cells were plated at 2.5×10^5 cells/well in a 12-well uncoated plate in depleted media (DMEM containing 0.5% FBS) 24 hours before beginning the experiment. […] Images were taken immediately after scratching and 24 hours later, and Adobe Photoshop was used to quantify wound motility as distance between wound edges relative to the initial scratch width.

[5] = biological target: T1, CXCR3 (Homo sapiens, UniProt P49682); conditions: cited from earlier work
T1 sequence (P49682 1-415 isoform P49682-2): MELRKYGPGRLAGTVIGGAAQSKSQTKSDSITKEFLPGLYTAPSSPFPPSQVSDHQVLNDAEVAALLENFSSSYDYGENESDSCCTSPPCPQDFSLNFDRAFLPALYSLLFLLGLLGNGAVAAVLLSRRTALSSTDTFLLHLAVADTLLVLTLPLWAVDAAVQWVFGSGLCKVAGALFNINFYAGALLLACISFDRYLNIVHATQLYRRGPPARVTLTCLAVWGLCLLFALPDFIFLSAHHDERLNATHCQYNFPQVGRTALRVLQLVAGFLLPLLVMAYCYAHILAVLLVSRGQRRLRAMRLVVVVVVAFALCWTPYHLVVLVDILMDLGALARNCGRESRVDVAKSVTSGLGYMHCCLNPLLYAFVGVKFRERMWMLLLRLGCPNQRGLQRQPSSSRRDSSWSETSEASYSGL

[6] = system: cardiac fibroblasts; assay: Fibroblast activation assay (αSMA), cardiac fibroblasts; assay type: cell-based, mouse
Procedure: as §1
(§3) Fibroblast activation to myofibroblasts is marked by αSMA expression within the cytoskeleton and serves as a marker to induce fibrosis. Cardiac fibroblasts were plated at 2,000 cells/well in an 8-well chamber slide and allowed to adhere overnight. After 24 hours, cells were washed and treated with: TGFβ1 alone (10 ng/ml), CXCL10 alone (10 μM), IP-10p alone (10 μM), TGFβ1+CXCL10, TGFβ1+IP-10p, or left untreated. After 24 hours, cells were fixed in ice cold methanol for 10 minutes and stained for αSMA (1:200, Abcam ab5694, Cambridge, UK) at 4° C. overnight, followed by a goat-anti-rabbit Alexa Fluor 594-conjugated secondary antibody (Abcam ab150080). After counterstaining with DAPI, cells were imaged, and fibroblast activation was measured using corrected total cell fluorescence (CTCF). These measurements were also performed in co-cultures of cardiomyocytes and cardiac fibroblasts (2:1 ratio)

[7] = system: CXCR3−/− co-cultures of cardiac fibroblasts and cardiomyocytes; assay: Myofibroblast differentiation and ECM in CXCR3−/− co-cultures; assay type: cell-based, mouse; conditions: CXCR3−/− cells, TGFβ1
Procedure: as §1, §3
Cardiac fibrosis is marked by overproduction of ECM proteins following injury. […] Expression of these molecules is expressed at CTCF and was quantified using MetaMorph® (Molecular Devices, Sunnyvale, CA).
In addition to cell motility, myofibroblast differentiation in CXCR3−/− cells in response to IP-10p was assessed. […]

[8] = agent alone vs unstimulated cultures

In the case of “PESKAIKNLLKAVSKEMSKRSP [IP-10p, 22-amino acid CXCL10 peptide spanning the C-terminal residues (77-98) of IP-10, the alpha-helical region]”, the “motility of cardiac fibroblasts, agent alone” value ([1]; 10 μM alone, 24 h, compared to control) is reported as “not altered”, the “migration following TGF-β induction in cardiac fibroblasts” value ([1]; FIG. 1B) is reported as “inhibit migration” and the “reduction of motility of TGFβ1-treated fibroblasts” value ([1]; TGFβ1 10 ng/mL + agent 10 μM, 24 h) is reported as “over 40%”. The “collagen expression in the presence of TGFβ1” value ([2]; TGFβ1 10 ng/mL + agent 10 μM) was “reduced expression of both these proteins to baseline levels”, the “fibronectin expression in the presence of TGFβ1” value ([2]; TGFβ1 10 ng/mL + agent 10 μM) was “reduced expression of both these proteins to baseline levels” and the “collagen secretion, agent alone” value [2, 8] was “reduced collagen and fibronectin secretion”. For the same sequence, the “fibronectin secretion, agent alone” value [2, 8] was “reduced collagen and fibronectin secretion”, the “cardiomyocyte motility in the presence of TGFβ1” value [3] was “completely inhibited” and the “cardiomyocyte motility in the presence of TGFβ1” value ([3]; listed as IP-10 Peptide) was “inhibit migration”. The “cellular migration in TGF-β induced co-cultures” value [4] was “inhibits cellular migration”, the “activation of the CXCR3B isoform” value ([5]; PCT Publication Nos. WO 2013/032853 and WO 2015/112505) was “activates the CXCR3B isoform” and the “competition for binding and activation of CXCR3” value ([5]; compared with whole CXCL10) was “competes for binding and activation of CXCR3 in an equimolar manner to whole CXCL10”. The “reduction of activation of fibroblasts (αSMA) compared to the untreated control” value ([6]; IP-10p alone 10 μM, 24 h) was 33%, the “αSMA expression in the presence of TGFβ1” value ([6]; TGFβ1 10 ng/mL + IP-10p 10 μM vs TGFβ1 alone) was “reduced αSMA expression” and the “expression of αSMA in CXCR3−/− co-cultures” value [7] was “inhibiting expression”. For the same sequence, the “upregulation of collagen I in CXCR3−/− co-cultures” value [7] was “inhibited upregulation” and the “upregulation of fibronectin in CXCR3−/− co-cultures” value [7] was “inhibited upregulation”.
